Experimental findings from the METLIN SMRT retention time set (Domingo-Almenara et al. 2019) are described below.

Each structure is given as a SMILES string.

The nature of the data set: gradient 5% acetonitrile 3 min, to 50% in 2 min, to 85% in 15 min, held 3 min, 100 µL/min. The note with it: column: Zorbax Extend-C18 2.1 x 50 mm; eluents: water / acetonitrile, 0.1% formic acid. The essentials:
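Pure standards were analyzed in mixtures of ~100 molecules using HPLC coupled to a quadrupole time-of-flight mass spectrometer, in both positive and negative ionization mode. Separation used a Zorbax Extend-C18 column (2.1 × 50 mm, 1.8 μm) at 100 μL/min, with water and acetonitrile each containing 0.1% formic acid. Dead and dwell volumes were 40 μL and 900 μL, and data were collected over 3 months. Retention time was read from computationally picked adduct peaks, each inspected manually.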
Molecule `CN(Cc1nc2ccccc2n1CC(=O)N(C)c1ccccc1)C(=O)c1ccco1` displayed an RP-LC retention time of 694 s.
With `COc1ccc(CCNC(=O)c2ccc3c(c2)NC(=O)C2CCCCN32)cc1OC` (stereo unspecified) the figure was 731 s.
With `Cc1noc(C)c1CCC(=O)N1CCC(c2nc(C3CC3)n[nH]2)CC1` the figure was 564 s; with `O=C(c1ccc(F)c(F)c1)N1CCC(n2c(-c3ccco3)nc3cccnc32)C1` (stereo unspecified), 776 s; with `Cc1ccc(-c2nccn3cc(C(=O)NC4CC4)nc23)cc1`, 803 s.
With `COc1cccc(Cn2ccn3nc(-c4ccc5c(c4)OCO5)cc3c2=O)c1` the figure was 970 s.
As to `COc1ccc(C)cc1NC(=O)C1CCN(S(=O)(=O)c2cc(C(=O)N3CCCC3)n(C)c2)CC1`, the RP-LC retention time worked out at 809 s.
On to `COCc1noc([C@@H]2CC(F)(F)CN2C(=O)C2CCC2)n1`, for which the RP-LC retention time turned out to be 746 s.
With `O=C1CC(C(=O)N2CCc3ccccc3C2)CN1CCc1c[nH]c2ccc(F)cc12` (stereo unspecified) the figure was 804 s; with `CC(C)c1ccc(NC(=O)Cn2cccc2-c2nnc(C3CCC3)o2)cc1`, 1060 s.
`COc1cccc(CNC(=O)C2CCCN(c3nc4ccccc4nc3OC)C2)c1` (stereo unspecified) registered an RP-LC retention time of 1010 s.
The molecule `CCc1nnc2c(=O)n(CC(=O)N3CCN(c4ccccc4)CC3)c3cccnc3n12` displayed an RP-LC retention time of 738 s.
With `Cc1cc(NC(=O)c2ccccc2)c(Cl)cc1N` the figure was 797 s; with `CCC(=O)N1CCc2cc(N3CC(C(=O)NCc4ccccc4)CC3=O)ccc21` (stereo unspecified), 699 s.
As for `CS(=O)(=O)Nc1nc2ccccc2[nH]1`, the figure is 645 s; as for `CCCCNc1cc(Cl)nc(N)n1`, 690 s.
As for `COCCNC(=O)C1(CCO)CCN(Cc2ccccc2)C1` (stereo unspecified), the figure is 560 s; as for `CCn1nc(C(=O)Nc2nc3c(OC)ccc(C)c3s2)cc1C`, 872 s; as for `CC1CCC(NC(=O)c2sc3ncccc3c2-n2cccc2)CC1` (stereo unspecified), 1200 s.
Consider `Cc1cc2nc(NC3=NCN(CC4CCCO4)CN3)nc(C)c2cc1C` (stereo unspecified), for which the RP-LC retention time is 683 s.
As for `COc1ccc(C(=O)Nc2nnc(C3CC(=O)N(c4ccc(Cl)cc4)C3)o2)cc1` (stereo unspecified), the figure is 773 s.
As for `Cc1ccc(CNC(=O)c2ccc3c(c2)N(C)C(=O)C2CCCCN32)cc1` (stereo unspecified), the figure is 908 s; as for `CCC(C(=O)Nc1cnn(-c2ncc(N(C)C)cn2)c1)c1ccccc1` (stereo unspecified), 811 s.
As for `O=C(Cn1c(=O)c2cccn2c2ccc(F)cc21)NCc1cccc(Br)c1`, the figure is 903 s; as for `O=C(Nc1nncs1)C1CCN(C(=O)c2ccccc2F)CC1`, 641 s; as for `COc1ccc(OC)c(NC(=O)Cn2nc(N3CCC(C)CC3)c3ccccc3c2=O)c1`, 1180 s.
Molecule `O=C(Nc1cnc(N2CCOCC2)nc1)c1cc(F)ccc1Cl` returned an RP-LC retention time of 746 s.
With `CC(=O)Oc1cccc(C2C3=C(CC(C)(C)CC3=O)Nc3ccccc3N2C(C)=O)c1` (stereo unspecified) the figure was 735 s.
As for `CCc1noc(NC(C)=O)c1-c1ccc(OC)c(S(=O)(=O)Nc2c(C)cccc2C)c1`, the figure is 790 s; as for `Cc1ccc(C)c(Nc2c(-c3ccc(Cl)cc3)nc3ncccn23)c1`, 954 s.
As for `Fc1ccc(-c2noc(-c3ccc(NC4CC4)nc3)n2)cc1`, the figure is 901 s; as for `Cn1c(SCC(=O)Nc2ncccn2)nnc1-c1ccc2c(c1)OCO2`, 579 s; as for `COc1ccc(N2CCN(c3cc(SCC(=O)Nc4cc(C)ccc4C)ncn3)CC2)cc1`, 1020 s.
`Cc1ccc(CNC(=O)C2CCN(C(=O)c3ncn4c3COC(c3ccc(Cl)cc3)C4)CC2)cc1` (stereo unspecified): the RP-LC retention time came out at 870 s.
With `Cc1nn(CC(=O)N2CCN(c3ccc(F)cc3)CC2)c(=O)c2noc(C)c12` the figure was 751 s; with `COc1ccc(N2CCn3c(SCC(=O)Nc4nc5ccccc5s4)nnc32)cc1`, 742 s.
On to `O=C(Nc1ccc(C2(C(=O)N3CCN(c4ccccc4F)CC3)CCC2)cc1)C1CC1`, for which the RP-LC retention time stood at 944 s.
With `CCn1ncc(CN2CCCCC2CCn2cc(-c3ccccc3)nn2)c1C` (stereo unspecified) the figure was 530 s; with `Cc1cccc(CN2CCN(CC(=O)N3CCN(Cc4ccccc4)CC3)C(=O)C2=O)c1`, 608 s; with `CN(C)C(=O)c1ccc2c(c1)N(CC(=O)NCc1ccc(Cl)cc1)C(=O)C1CCCCN21` (stereo unspecified), 792 s.
With `CCC(=O)N1CCc2cc(C(=O)N3CCCCCC3)ccc21` the figure was 770 s.
As for `CCCN1C(=O)C(C)(C(=O)NCc2ccccc2Cl)Oc2cccnc21` (stereo unspecified), the RP-LC retention time stood at 942 s.
On to `O=C(NCc1ccc(-c2noc(/C=C/c3ccccc3)n2)s1)C1CC1`, for which the RP-LC retention time was 915 s.
As for `CC(=O)NCc1ccc(-c2noc(-c3cccc(Br)c3)n2)s1`, the figure is 922 s; as for `C[C@@H]1OC(Oc2ccccc2-c2cc(=O)c3c(O)cc(O)c([C@@H]4O[C@H](CO)[C@@H](O)[C@H](O)[C@H]4O)c3o2)[C@H](O)[C@H](O)[C@H]1O` (stereo partly specified), 622 s.
In turn, `O=C(CN1CCCC1=O)NCc1ccc(F)cc1Cl` had an RP-LC retention time of 656 s.
As for `O=C(Nc1cccs1)N1CC(c2nc(C3CC3)no2)C1`, the figure is 681 s.
With `CCOc1cccc(Cn2c(=O)c3sccc3n(Cc3nc(-c4ccc(C)cc4)no3)c2=O)c1` the figure was 1120 s; with `COc1cc(NC(=O)C(C)Oc2ccc(=O)n(-c3ccc(F)cc3)n2)cc(OC)c1` (stereo unspecified), 794 s; with `Cc1ccc2c(c1)-c1onc(C(=O)N3CCN(c4ccccn4)CC3)c1CO2`, 747 s.
The molecule `Cc1ccc(-c2ncccc2CNS(=O)(=O)c2cccc(C#N)c2)cc1` returned an RP-LC retention time of 691 s.
With `Cc1oc(-c2ccc(NC(=O)Cc3ccc(Cl)cc3)cc2)nc1Cn1cccn1` the figure was 941 s; with `CCCN1CCN(C(=O)CSc2nccnc2Sc2ccccc2)CC1`, 662 s.
As for `CCOC(=O)c1ccc(NC(=O)c2cn3c4c(ccc(Cl)c4c2=O)OCC3)cc1`, the figure is 1040 s.
As for `CCCCN(C)c1ccc2nnc(CCc3nc(-c4cccc(C)c4)no3)n2n1`, the figure is 951 s.
Regarding `CCn1cc(-c2ccc(Cl)cc2)cc1C(=O)NCCN(C)C`, the RP-LC retention time was found to be 702 s.
With `Cc1cccc(NC(=O)N2CCCC2C(=O)N(C)C)c1` (stereo unspecified) the figure was 643 s.
As for `COc1cc([N+](=O)[O-])ccc1NC(=O)c1cccc(Br)c1`, the figure is 1030 s.
With `CCc1ccc2[nH]c3c(c(=O)c2c1)CN(CC(=O)NCc1ccc(F)cc1)CC3` the figure was 626 s; with `COc1ccc(S(=O)(=O)N2CCCC(C(=O)NCCCOC(C)C)C2)cc1C` (stereo unspecified), 877 s; with `CCNc1cc(N2CCCC(CCC(=O)N3CCc4ccccc4C3)C2)ncn1` (stereo unspecified), 694 s.
Take `Cn1cc(-c2cc3n(n2)CCC(=O)N3CCCC(=O)Nc2ccc(F)cc2F)c2ccccc21`: the RP-LC retention time was determined as 860 s.
With `Cc1ccc(C(=O)N2CCN(S(=O)(=O)c3cc4c5c(c3)CCC(=O)N5CCC4)CC2)cc1C` the figure was 850 s; with `CCn1cc(C(=O)Nc2ccc(Cl)cc2)c2cccnc21`, 931 s.
In turn, `CC(NC(=O)C(=O)NC1CCCCC1)C(c1cccs1)N1CCOCC1` (stereo unspecified) returned an RP-LC retention time of 604 s.
As for `C=CCN1CCN(c2nc3cc(C(=O)OC)ccc3c(=O)n2-c2ccccc2)CC1`, the figure is 637 s.
With `O=c1c2ccccc2n(Cc2nc(-c3ccc(Br)cc3)no2)c(=O)n1CC1CCCO1` (stereo unspecified) the figure was 1120 s.
`CCc1c(C(=O)O)nnn1Cc1ccccc1` yielded an RP-LC retention time of 701 s.
With `Cc1nccn1CCNC(=O)C(=O)Nc1ccc(OC(F)(F)F)cc1` the figure was 580 s; with `O=C(NCc1ccccc1F)C1CCc2nc(N3CCOCC3)ncc2C1` (stereo unspecified), 731 s; with `CN1CCN(CCCNC(=O)c2ccccc2NC(=O)C2=CSCCO2)CC1`, 878 s.
As for `O=C(Cn1cnc(-c2cccs2)cc1=O)NCCOc1ccc(-c2ccco2)nn1`, the figure is 583 s; as for `Fc1ccc(-c2nc(-c3cn(-c4cccc(F)c4)nn3)no2)cc1`, 1080 s; as for `CC(C)CCNC(=O)c1cc2c(s1)N(C)CCC2`, 928 s.
As for `O=C(NCc1cccc(Cl)c1)C1CCCN(c2ncnc3c2nc2n3CCCCC2)C1` (stereo unspecified), the figure is 804 s; as for `COc1ccc(Cl)cc1C(=O)N1CCC(c2nc3ccncc3n2C(C)C)C1` (stereo unspecified), 543 s; as for `COc1ccc(NC(=O)c2cn(-c3cc(N(C)C)ncn3)cn2)cc1F`, 782 s.
Molecule `CCCOc1ccc(C2C(=O)N(C3CCCCC3)CC(=O)N2Cc2ccco2)cc1OC` (stereo unspecified) yielded an RP-LC retention time of 973 s.
With `Cc1ccsc1CN1CCC(Cn2c(C)cnc2C)CC1` the figure was 521 s; with `Cn1cc(C(=O)N2CCCC(c3nnc4n3CCN(C3CCCC3)C4)C2)cn1` (stereo unspecified), 553 s; with `CCOC(=O)c1ccc(NC(=O)CN2CCC(C)CC2)cc1`, 561 s.
